In patent publication US10556879B2, “Retinoid compound, preparation method therefor, intermediates thereof and application thereof” (SHANGHAI INSTITUTE OF ORGANIC CHEMISTRY, CHINESE ACADEMY OF …, priority 2016, dated 2020):
Several values for one entry are separate records, joined by “and”; a condition that tells them apart may be missing. Identical values can stand only once. Entries after “also recorded” stand apart in the source; their conditions may differ. Like-named read-outs stand apart in the source and are kept apart here. Blank lines part the entries; values can stand above or below the molecule they belong to.

Assays:
[1] = system: metastatic melanoma in the lung; assay: Metastatic melanoma in the lung model, 3000 tumor-repopulating cells via tail vein (WYC-103); type: in vivo; conditions: blood concentration 10 μM
From the text: A metastatic melanoma model in the mouse was established to study whether WYC-103 could inhibit metastatic melanoma in the lung thus prevent secondary tumorigenesis. Firstly, 12 normally immunocompetent mice (C57BL/6, female, 6-8 weeks) were randomly selected and injected via the tail vein with 3000 tumor-repopulating cells of melanoma to establish a metastatic melanoma model in the mouse. The model mice were randomly divided into two groups which were respectively the treatment group and the negative control group. The mice were administered with WYC-103 (the treatment group) and DMSO (the negative control group) via tail vein injection once every 2 days at a blood concentration of 10 μM based on the body weight and the blood volume of the mice.

[2] = system: subcutaneous implantation tumor of B16-F1 melanoma; assay: Subcutaneous implantation model of B16-F1 melanoma in immunocompetent mice; type: in vivo, mice (C57BL/6)
Protocol: A subcutaneous implantation model of B16-F1 melanoma in immunocompetent mice (C57BL/6, female, 6-8 weeks) was established to study the inhibitory activity of compound WYC-103 on the tumor in situ. Firstly, B16-F1 cells were incubated within 3D fibrin gel (90-Pa in gel stiffness) that was immersed in culture medium for 5 days, and the desired tumor-repopulating cells were screened. Subsequently, the culture medium was respectively treated with collagenase and neutral protease II, and the tumor-repopulating cells of B16-F1 melanoma were released, then the obtained repopulating cells were transferred to a freshly prepared medium to be re-suspended and maintained at single-cell state.
Six immunocompetent mice were randomly divided into two groups which were respectively the treatment group and the DMSO negative control group. Mice were subcutaneously injected with 30,000 tumor-repopulating cells of melanoma to establish a subcutaneous implantation model of melanoma. Subsequently, Mice were administered via tail vein injection based on the body weight and the blood volume of the mice. From day 0, mice in the treatment group were administrated with WYC-103 once every 2 days at a blood concentration of 10 μM and fed normally, observing the survival of the mice. […] According to the statistical analysis, the tumor volume in the treatment group was only 50% of the control group (FIG. 12).
This experiment was repeated in order to further confirm the inhibitory activity of WYC-103 on subcutaneous implantation tumor of B16-F1 melanoma. In the present experiment, 18 immunocompetent mice (C57BL/6, female, 6-8 weeks) were randomly divided into three groups which were respectively the treatment group, the positive control group (BMS-453 was used as the positive drug) and the DMSO negative control group. Subsequently, Mice were administered via tail vein injection based on the body weight and the blood volume of the mice. From day 0, mice in the treatment group were administrated with WYC-103 once every 2 days at a blood concentration of 10 μM; mice in the positive control group were administered with BMS-453 (WYC-114) as the positive drug in the same route of administration; mice in the negative control group was administered with 0.1% DMSO in a same route of administration.

[3] = system: tumor-repopulating cells of B16-F1 melanoma; assay: Inhibitory activity on proliferation of tumor-repopulating cells (TRCs) of B16-F1 melanoma in 3D fibrin gel; type: cell-based; conditions: for IC50: colony tumor volume, read-out: IC50 of inhibition on TRCs of B16-F1 melanoma/μM
Protocol: B16-F1 Melanoma cells were incubated with 3D fibrin gel medium (90-Pa) for 5 days, and the desired tumor-repopulating cells of melanoma were screened (Nat. Mater. 2012, 11, 734). Subsequently, the culture medium was respectively treated with collagenase and neutral protease II, and the tumor-repopulating cells of B16-F1 melanoma were released, then the obtained repopulating cells were transferred to a freshly prepared medium to be resuspended and maintained at single-cell state. The tumor-repopulating cells of B16-F1 melanoma were inoculated in 3D fibrin gel medium (90-Pa) for 5 days, with 0.1% DMSO as the negative control group, Tazarotene and Bexarotene as the positive control drugs respectively, […] for 5 days. The colony tumor size was measured and calculated, and the inhibition rate of each drug on the tumor-repopulating cells of B16-F1 melanoma was calculated. The results of inhibitory activity of the compound of the present invention on the proliferation of tumor-repopulating cells of B16-F1 melanoma were shown in Table 2 below.

[4] = system: B16-F1 metastatic melanoma in the lung; assay: B16-F1 metastatic melanoma in the lung model, 30,000 tumor-repopulating cells via tail vein (WYC-209); type: in vivo, mice (C57BL/6); conditions: for mice that suffered pulmonary metastatic melanoma: 30th day, 8 mice
Protocol: This experiment was performed to study whether WYC-209 could inhibit the metastasis of melanoma to the lung thus prevent secondary tumorigenesis. The B16-F1 cells were incubated with 3D fibrin gel medium (90-Pa) for 5 days, and the desired tumor-repopulating cells were screened. Subsequently, the culture medium was respectively treated with collagenase and neutral protease II, and the tumor-repopulating cells were released, then the obtained repopulating cells were transferred to a freshly prepared medium to be re-suspended and maintained at single-cell state. Then 24 immunocompetent mice (C57BL/6, female, 6-8 weeks) were randomly selected and divided into three groups which were respectively low-dose group (1.0 μM), high-dose group (10 μM) and DMSO negative control group, with 8 mice per group. Subsequently, the mice were injected via the tail vein with 30,000 tumor-repopulating cells of melanoma to establish a B16-F1 metastatic melanoma model in the mouse. Subsequently, Mice were administered via tail vein injection based on the body weight and the blood volume of the mice. From the 5th day on, mice in the treatment group were administrated with WYC-209 once every 2 days at a blood concentration of 1.0 μM and 10 μM; mice in the DMSO group was administered with 0.1% DMSO in a same route of administration as negative control. At this time, there was no significant difference in the body weight between the groups, the mice were fed normally, observing the survival of the mice.

[5] = system: tumor-repopulating cells of MCF-7 breast cancer; assay: Inhibition of proliferation of tumor-repopulating cells, colony tumor volume in 3D fibrin gel; type: cell-based, human; conditions: MCF-7 TRCs
Protocol: (§1) Therefore, we further studied the inhibitory activity of this compound against tumor-repopulating cells of six other kinds of human tumor, including A549 lung cancer cell, MCF-7 breast cancer cell, MDA-MB-435S melanoma cell, A2780 ovarian cancer cell, Hs-746T gastric cancer cell, MDA-MB-231 breast cancer cell.
(§2) The above cancer cells were incubated with 3D fibrin gel medium (90-Pa) for 5 days, and the desired tumor-repopulating cells were screened. Subsequently, the culture medium was respectively treated with collagenase and neutral protease II, and the tumor-repopulating cells of B16-F1 melanoma were released, then the obtained repopulating cells were transferred to a freshly prepared medium to be resuspended and maintained at single-cell state. The tumor-repopulating cells of individual tumor were inoculated in 3D fibrin gel medium (90-Pa) for 5 days, with 0.1% DMSO as the negative control group (represented by DMSO group in FIGS. 3-8), the drug-free group as vehicle control group (represented by None group in FIGS. 3-8), and the study was performed by beginning administrating on the day 0 and the 3rd day respectively, and the colony tumor volume was measured and calculated.

[6] = system: tumor-repopulating cells of MDA-MB-435S melanoma; assay: as above; type: cell-based, human; conditions: MDA-MB-435S TRCs
Protocol: as §1, §2

[7] = system: tumor-repopulating cells of A549 lung cancer; assay: as above; type: cell-based, human; conditions: A549 TRCs
Protocol: as §1, §2

[8] = system: tumor-repopulating cells of Hs-746T gastric cancer; assay: as above; type: cell-based, human; conditions: Hs-746T TRCs
Protocol: as §1, §2

[9] = system: tumor-repopulating cells of A2780 ovarian cancer; assay: as above; type: cell-based, human; conditions: A2780 TRCs; for volume of colony tumor relative to None group: 10 μM
Protocol: as §1, §2
as §2, with “The above human tumor cells were” for “The above cancer cells were”, “cells of B16-F1 melanoma were inoculated” for “cells of individual tumor were inoculated”, “group in FIG. 9), the drug-free” for “group in FIGS. 3-8), the drug-free”, “measured and calculated, beginning administrating from the 3rd day at a concentration of 0.1 μM, 1.0 μM, and 10 μM respectively, the colony tumor volume was measured and calculated.” for “measured and calculated.”

[10] = system: tumor-repopulating cells of MDA-MB-231 breast cancer; assay: as above; type: cell-based, human; conditions: MDA-MB-231 TRCs; for volume of colony tumor relative to None group: 10 μM
Protocol: as §1, §2
as §2, with “The above human tumor cells were” for “The above cancer cells were”, “cells of B16-F1 melanoma were inoculated” for “cells of individual tumor were inoculated”, “group in FIG. 9), the drug-free” for “group in FIGS. 3-8), the drug-free”, “measured and calculated, beginning administrating from the 3rd day at a concentration of 0.1 μM, 1.0 μM, and 10 μM respectively, the colony tumor volume was measured and calculated.” for “measured and calculated.”

[11] = system: 3T3 mouse embryonic fibroblast cells; assay: In vitro toxicity on normal cells (proliferation, apoptosis); type: cell-based; conditions: 10 μM
Protocol: (§3) The 3T3 mouse embryonic fibroblast cells and B16-F1 melanoma cells were used as the model to study in vitro toxicity of WYC-209 and WYC-331 respectively. The effect of compound WYC-209 and WYC-331 on the proliferation of 3T3 mouse embryonic fibroblast cells and B16-F1 melanoma cells were studied at a concentration of 10 μM.

B16-F1 melanoma cells = assay: In vitro effect on B16-F1 melanoma cells (proliferation, apoptosis) in the toxicity study; type: cell-based; conditions: 10 μM
Protocol: as §3

[12] = Mus musculus, B16-F1, 120 h, 10 μM, incubated 5 days, colony tumor size, read-out: Inhibition rate on TRCs of B16-F1 melanoma at a concentration of 10 μM (%)
[13] = Mus musculus, B16-F1, 10 μM (Table 3), read-out: Inhibition rate on TRCs of B16-F1 melanoma at a concentration of 10 μM/%
[14] = Mus musculus, B16-F1, dose-response curve

Structure (SMILES): CCOC(=O)c1ccc(C#Cc2ccc3c(c2)C(C)(C)CCS3)cc1O [WYC-103, ethyl 4-((4,4-dimethylthiochroman-6-yl)ethynyl)-2-hydroxybenzoate]
average lung weight relative to the negative control group [1]: ⅓
toxic side effects ([1]; whole experiment): no obvious toxic side effects
efficiency of preventing the occurrence of metastatic melanoma in the lung ([1]; tail vein injection every 2 days): 100%
tumor volume in the treatment group relative to the control group ([2]; first experiment, after 19 days, tail vein injection every 2 days, blood concentration 10 μM): 50%
body weight of the mice ([2]; mouse, in vivo): stable and balanced
dissection of peritoneal/abdominal cavity ([2]; mouse, in vivo): No abnormalities
toxic side effects ([2]; mouse, in vivo): no obvious toxic side effects
tumor volume in the treatment group relative to the negative control group ([2]; repeated experiment, 26th day, tail vein injection every 2 days, blood concentration 10 μM): 50%
mice died ([2]; repeated experiment, on the 26th day): 50%
inhibition at 10 µM [3, 12]: 86.8%
inhibition at 10 µM [3, 13]: 86.8%

Structure (SMILES): CCOC(=O)c1cnc(C#Cc2ccc3c(c2)C(C)(C)CC[S+]3[O-])nc1 (stereo not shown) [WYC-209, ethyl 2-((4,4-dimethyl-1-oxothiochroman-6-yl)ethynyl)pyrimidin-5-carboxylate]
abnormalities in the liver and stomach ([4]; 1.0 μM treatment group): no abnormalities found in the liver and stomach
abnormalities in the liver and stomach ([4]; 10 μM treatment group): no abnormalities found in the liver and stomach
mice that suffered pulmonary metastatic melanoma ([4]; 1.0 μM treatment group): 50%
mice that suffered pulmonary metastatic melanoma ([4]; 10 μM treatment group): 12.5%
efficiency of preventing metastasis of repopulating cells of melanoma to the lung ([4]; blood concentration 1.0 μM): 50%
efficiency of preventing metastasis of repopulating cells of melanoma to the lung ([4]; blood concentration 10 μM): 87.5% and 87%
toxic side effects ([4]; whole experiment): no obvious toxic side effects
volume of tumor colony relative to None group ([5]; 1.0 μM): 25-30%
volume of colony tumor relative to None group ([5]; 10 μM): less than 10%
volume of tumor colony relative to None group ([6]; 1.0 μM): 25-30%
volume of colony tumor relative to None group ([6]; 10 μM): less than 10%
volume of tumor colony relative to None group ([7]; 1.0 μM): 25-30%
volume of colony tumor relative to None group ([7]; 10 μM): less than 10%
growth trend of colony tumor [8]: reverse the growth trend of colony tumor
volume of tumor colony relative to None group ([8]; 1.0 μM): 25-30%
volume of colony tumor relative to None group ([8]; 10 μM): less than 10%
inhibition at 10 µM [3, 12]: 98.8%
IC50 [3, 14]: 0.25 µM
inhibition at 10 µM [3, 13]: 98.8%
IC50 ([3]; dose-response curve): 0.19 µM
volume of tumor colony relative to None group ([9]; 1.0 μM): 25-30%
volume of colony tumor relative to None group [9]: less than 10%
volume of tumor colony relative to None group ([10]; 1.0 μM): 25-30%
volume of colony tumor relative to None group [10]: less than 10%
effect on proliferation of 3T3 mouse embryonic fibroblast cells [11]: did not affect the proliferation; also recorded: no effect on the growth of 3T3 cell clones
induction of apoptosis of 3T3 mouse embryonic fibroblast cells [11]: did not induce apoptosis; also recorded: could not induce apoptosis
effect on proliferation of B16-F1 melanoma cells (B16-F1 melanoma cells): significantly block the growth
induction of apoptosis of B16-F1 melanoma cells (B16-F1 melanoma cells): significant cell apoptosis

IC50 [3, 14]: 0.017 µM
Structure (SMILES): CCOC(=O)c1cnc(C#Cc2ccc3c(c2)C(C)(C)CCC3(C)C)nc1 [WYC-331, ethyl 2-((5,5,8,8-tetramethyl-5,6,7,8-tetrahydronaphth-2-yl)ethynyl)pyrimidin-5-carboxylate]
inhibition at 10 µM [3, 12]: 96%
inhibition at 10 µM [3, 13]: 96%
volume of colony tumor relative to None group [9]: 10-15%
growth trend of colony tumor [10]: reverse the growth trend of colony tumor
volume of colony tumor relative to None group [10]: 10-15%
effect on proliferation of 3T3 mouse embryonic fibroblast cells [11]: no effect on the growth of 3T3 cell clones
induction of apoptosis of 3T3 mouse embryonic fibroblast cells [11]: did not exhibit significant apoptosis-inducing effect; also recorded: could not induce apoptosis
effect on proliferation of B16-F1 melanoma cells (B16-F1 melanoma cells): strongly inhibited the proliferation
induction of apoptosis of B16-F1 melanoma cells (B16-F1 melanoma cells): did not exhibit significant apoptosis-inducing effect
